Measured values taken from the supplement of paper PMC10307832.

What was measured:
Experiment in all cases: relative viability (nuclei count vs DMSO), 5 days (fraction); higher = more cells survive
[1] = compound: CC1=C(N=C(N=C1N)[C@H](CC(=O)N)NC[C@@H](C(=O)N)N)C(=O)N[C@@H]([C@H](C2=CN=CN2)OC3C(C(C(C(O3)CO)O)O)OC4C(C(C(C(O4)CO)O)OC(=O)N)O)C(=O)N[C@H](C)[C@H]([C@H](C)C(=O)N[C@@H]([C@@H](C)O)C(=O)NCCC5=NC(=CS5)C6=NC(=CS6)C(=O)NCCC[S+](C)C)O [Bleomycin] + CC(C)C[C@H](NC(=O)[C@H](Cc1ccccc1)NC(=O)c1cnccn1)B(O)O [Bortezomib] (partner 0.002 µM); conditions: main component drawn
Method in brief: (§1)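 Relative viability is defined as nuclei in treated wells over nuclei in vehicle wells. Duplicate plates were run and medians reported. Lung cancer cell lines in 1536-well plates were dosed by pin tool one day after seeding, with one drug or with a fixed anchor-drug dose plus five library-drug doses (not always all listed) in √10 steps, and nuclei were counted after 5 days.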

[2] = compound: CC1=C(N=C(N=C1N)[C@H](CC(=O)N)NC[C@@H](C(=O)N)N)C(=O)N[C@@H]([C@H](C2=CN=CN2)OC3C(C(C(C(O3)CO)O)O)OC4C(C(C(C(O4)CO)O)OC(=O)N)O)C(=O)N[C@H](C)[C@H]([C@H](C)C(=O)N[C@@H]([C@@H](C)O)C(=O)NCCC5=NC(=CS5)C6=NC(=CS6)C(=O)NCCC[S+](C)C)O [Bleomycin] + Nc1ncn([C@H]2C[C@H](O)[C@@H](CO)O2)c(=O)n1 [Decitabine] (partner 2 µM); conditions: main component drawn
Method in brief: as §1

[3] = compound: COc1cc([C@@H]2c3cc4c(cc3[C@@H](O[C@@H]3O[C@@H]5CO[C@@H](C)O[C@H]5[C@H](O)[C@H]3O)[C@H]3COC(=O)[C@H]23)OCO4)cc(OC)c1O [Etoposide] + CCNC(=O)c1noc(-c2cc(C(C)C)c(O)cc2O)c1-c1ccc(CN2CCOCC2)cc1 [Luminespib] (partner 0.01 µM)
Method in brief: as §1

[4] = compound: COc1cc([C@@H]2c3cc4c(cc3[C@@H](O[C@@H]3O[C@@H]5CO[C@@H](C)O[C@H]5[C@H](O)[C@H]3O)[C@H]3COC(=O)[C@H]23)OCO4)cc(OC)c1O [Etoposide] + Cc1nc(Nc2ncc(C(=O)Nc3c(C)cccc3Cl)s2)cc(N2CCN(CCO)CC2)n1 [Dasatinib] (partner 0.075 µM)
Method in brief: as §1

Row | Cell Line | relative viability ([1]; first compound 0.01 µM) | relative viability ([1]; first compound 0.03162 µM) | relative viability ([1]; first compound 0.1 µM) | relative viability ([1]; first compound 0.3162 µM) | relative viability ([1]; first compound 1 µM) | relative viability ([2]; first compound 0.01 µM) | relative viability ([2]; first compound 0.03162 µM) | relative viability ([2]; first compound 0.1 µM) | relative viability ([2]; first compound 0.3162 µM) | relative viability ([2]; first compound 1 µM) | relative viability ([3]; first compound 0.01 µM) | relative viability ([3]; first compound 0.03162 µM) | relative viability ([3]; first compound 0.1 µM) | relative viability ([3]; first compound 0.3162 µM) | relative viability ([3]; first compound 1 µM) | relative viability ([4]; first compound 0.01 µM) | relative viability ([4]; first compound 0.03162 µM) | relative viability ([4]; first compound 0.1 µM) | relative viability ([4]; first compound 0.3162 µM) | relative viability ([4]; first compound 1 µM)
1 | NCI-H2023 | 0.61 | 0.772 | 0.548 | 0.205 | 0.11 | 0.195 | 0.195 | 0.152 | 0.113 | 0.0909 | 0.709 | 0.829 | 0.708 | 0.195 | 0.112 | 0.492 | 0.554 | 0.378 | 0.326 | 0.125
2 | NCI-H2085 | 0.768 | 0.875 | 0.707 | 0.377 | 0.366 | 0.558 | 0.551 | 0.418 | 0.421 | 0.339 | 0.34 | 0.514 | 0.451 | 0.338 | 0.265 | 0.219 | 0.241 | 0.226 | 0.23 | 0.197
3 | NCI-H2087 | 0.6 | 0.785 | 0.645 | 0.133 | 0.176 | 0.261 | 0.27 | 0.229 | 0.144 | 0.183 | 0.153 | 0.162 | 0.165 | 0.164 | 0.155 | 0.672 | 1.06 | 0.653 | 0.553 | 0.166
4 | NCI-H2126 | 1.06 | 1.08 | 1.08 | 0.7 | 0.947 | 0.626 | 0.621 | 0.601 | 0.567 | 0.566 | 0.927 | 0.877 | 0.545 | 0.622 | 0.33 | 0.668 | 0.568 | 0.434 | 0.485 | 0.244
5 | NCI-H2347 | 0.915 | 1.05 | 0.889 | 0.7 | 0.476 | 0.572 | 0.635 | 0.543 | 0.514 | 0.488 | 0.498 | 0.407 | 0.299 | 0.237 | 0.285 | 0.365 | 0.294 | 0.293 | 0.255 | 0.249
6 | NCI-H2405 | 0.875 | 0.932 | 0.91 | 0.525 | 0.371 | 0.648 | 0.655 | 0.61 | 0.433 | 0.309 | 0.646 | 0.65 | 0.949 | 0.664 | 0.301 | 0.219 | 0.23 | 0.239 | 0.197 | 0.199
7 | NCI-H3122 | 0.999 | 0.976 | 0.957 | 0.698 | 0.428 | 0.441 | 0.49 | 0.358 | 0.324 | 0.26 | 0.072 | 0.0992 | 0.0664 | 0.116 | 0.076 | 0.749 | 0.775 | 0.112 | 0.817 | 0.223
8 | PC-3 [JPC-3] | 0.748 | 0.926 | 0.791 | 0.446 | 0.448 | 0.806 | 0.69 | 0.704 | 0.621 | 0.547 | 0.67 | 0.717 | 0.549 | 0.581 | 0.371 | 0.915 | 0.915 | 0.871 | 0.961 | 0.927
9 | PC-14 | 0.541 | 0.253 | 0.155 | 0.0725 | 0.0825 | 0.153 | 0.158 | 0.0921 | 0.0512 | 0.0367 | 0.112 | 0.172 | 0.143 | 0.138 | 0.151 | 0.266 | 0.227 | 0.276 | 0.217 | 0.151
10 | RERF-LC-KJ | 0.887 | 0.727 | 0.625 | 0.343 | 0.334 | 0.418 | 0.478 | 0.336 | 0.213 | 0.145 | 1.16 | 1.2 | 1.29 | 0.93 | 0.724 | 0.602 | 0.899 | 0.707 | 0.73 | 0.494
11 | SK-LU-1 | 0.939 | 1.04 | 0.915 | 0.293 | 0.274 | 0.598 | 0.631 | 0.655 | 0.554 | 0.492 | 0.237 | 0.243 | 0.189 | 0.191 | 0.183 | 0.172 | 0.177 | 0.172 | 0.14 | 0.122
12 | SW 1573 | 0.7 | 0.812 | 0.719 | 0.305 | 0.26 | 0.368 | 0.442 | 0.311 | 0.19 | 0.197 | 0.131 | 0.164 | 0.355 | 0.152 | 0.0996 | 0.43 | 0.525 | 0.212 | 0.155 | 0.0993
